Like-named read-outs stand apart in the source and are kept apart here.
Experiments:
[1] = target: full-length MALT1 protein (Strep-MALT1(1-824)-His) (Homo sapiens (Human), UniProt Q9UDY8); assay: MALT1 Biochemical Protease Assay (Ac-LRSR-AMC substrate); conditions: 10 nM FL MALT1, 200 μM Ac-LRSR-AMC, 4 h at RT; read-out: MALT1_Biochemical activity (Ac-LRSR-amc) IC50
Procedure, shortened: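 Full-length MALT1 pre-incubated with compounds (30 μM to 0.5 nM, 11 threefold steps) for 50 min at RT. After Ac-LRSR-AMC was added, the reaction ran 4 h at RT and AMC fluorescence was read. IC50 and Hill slope from curve fitting against no-enzyme and no-compound controls.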

[2] = system: IL6 secretion by OCI-LY3 ABC-DLBCL cells; assay: Human IL6 Mesoscale assay (OCI-LY3); assay type: cell-based; conditions: 24 h
Procedure, shortened: (§1)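 Compounds tested from 15 μM to 58.6 nM (twofold, 9 concentrations) on 100,000 cells per well over 24 h at 37° C, without beta-mercaptoethanol. Secreted cytokine in supernatant detected by MSD electrochemiluminescence; scaling used DMSO as maximum and RN486 as full inhibition.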

[3] = system: IL10 secretion by OCI-LY3 ABC-DLBCL cells; assay: Human IL10 Mesoscale assay (OCI-LY3); assay type: cell-based; conditions: 24 h
Procedure, shortened: as §1

OCI-Ly3 cells = assay: 4-day proliferation assay, OCI-Ly3; assay type: cell-based, human; conditions: 4 days incubation, CellTiterGLO, read-out: Anti-proliferation: OCI-LY-3 IC50
Procedure, shortened: (§2)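 TMD8 and OCI-Ly3 cells were seeded at 10,000 per well and grown 4 days at 37° C, 5% CO2 without beta-mercaptoethanol. Viability was read by CellTiter-Glo luminescence. IC50 and Hill slope were fitted relative to the low control median.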

TMD8 cells = assay: 4-day proliferation assay, TMD8; assay type: cell-based; conditions: 4 days incubation, CellTiterGLO, read-out: Anti-proliferation: TMD-8 IC50
Procedure, shortened: as §2

[4] = system: IL6 secretion by TMD8 ABC-DLBCL cells; assay: Human IL6 Mesoscale assay (TMD-8); assay type: cell-based; conditions: Homo sapiens, TMD8; TMD-8 cells, 24 h
Procedure, shortened: as §1

[5] = system: IL10 secretion by TMD8 ABC-DLBCL cells; assay: Human IL10 Mesoscale assay (TMD-8); assay type: cell-based; conditions: Homo sapiens, TMD8; TMD-8 cells, 24 h
Procedure, shortened: as §1

full-length MALT1 protein (Strep-MALT1(1-824)-His), sequence (Q9UDY8 whole entry): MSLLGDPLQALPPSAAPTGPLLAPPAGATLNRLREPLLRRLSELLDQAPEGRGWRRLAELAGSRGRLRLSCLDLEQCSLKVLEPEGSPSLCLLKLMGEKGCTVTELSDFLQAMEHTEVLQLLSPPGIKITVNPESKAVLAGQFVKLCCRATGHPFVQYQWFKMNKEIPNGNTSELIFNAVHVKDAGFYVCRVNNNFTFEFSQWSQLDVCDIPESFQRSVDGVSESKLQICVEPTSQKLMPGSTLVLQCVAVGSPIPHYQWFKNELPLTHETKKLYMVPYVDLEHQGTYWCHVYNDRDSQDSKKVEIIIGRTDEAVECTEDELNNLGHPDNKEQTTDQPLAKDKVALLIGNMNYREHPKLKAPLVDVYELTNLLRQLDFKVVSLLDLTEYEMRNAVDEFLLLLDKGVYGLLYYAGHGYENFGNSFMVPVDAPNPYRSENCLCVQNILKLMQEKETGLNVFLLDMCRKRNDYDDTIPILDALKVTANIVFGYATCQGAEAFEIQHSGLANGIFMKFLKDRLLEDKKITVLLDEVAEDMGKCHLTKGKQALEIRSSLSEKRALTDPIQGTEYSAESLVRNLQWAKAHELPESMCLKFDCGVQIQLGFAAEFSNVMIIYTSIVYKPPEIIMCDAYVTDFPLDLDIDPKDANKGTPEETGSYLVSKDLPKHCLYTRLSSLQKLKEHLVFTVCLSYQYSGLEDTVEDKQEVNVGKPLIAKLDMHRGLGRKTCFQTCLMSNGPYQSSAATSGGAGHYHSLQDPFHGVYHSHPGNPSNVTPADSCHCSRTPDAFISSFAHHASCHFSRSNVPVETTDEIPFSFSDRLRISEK

Molecule	IC50 [1]	IC50 ([2]; Homo sapiens)	IC50 ([3]; Homo sapiens)	IC50 (OCI-Ly3 cells; Homo sapiens, 96 h)	IC50 (TMD8 cells; Homo sapiens, 96 h)	IC50 [2]	IC50 [3]	IC50 (OCI-Ly3 cells)	IC50 (TMD8 cells)	IC50 [4]	IC50 [5]
N#Cc1cc(NC(=O)c2cnn(-c3cccc4ocnc34)c2C(F)(F)F)cnc1-n1nccn1 [Cpd 311, 1-(benzo[d]oxazol-4-yl)-N-(5-cyano-6-(2H-1,2,3-triazol-2-yl)pyridin-3-yl)-5-(trifluoromethyl)-1H-pyrazole-4-carboxamide]	50 nM	34 nM	37 nM	2320 nM	3550 nM	–	–	–	–	–	–
NC(=O)c1ncc(-n2ncc(C(=O)Nc3cnc(-n4nccn4)c(Cl)c3)c2C(F)(F)F)c2ccccc12 [Cpd 387, 4-(4-((5-chloro-6-(2H-1,2,3-triazol-2-yl)pyridin-3-yl)carbamoyl)-5-(trifluoromethyl)-1H-pyrazol-1-yl)isoquinoline-1-carboxamide]	30 nM	141 nM	95 nM	692 nM	2190 nM	–	–	–	–	–	–
O=C(Nc1cnc(-n2nccn2)c(Br)c1)c1cnn(-c2cccc3ncccc23)c1C(F)(F)F [Cpd 139, N-(5-bromo-6-(2H-1,2,3-triazol-2-yl)pyridin-3-yl)-1-(quinolin-5-yl)-5-(trifluoromethyl)-1H-pyrazole-4-carboxamide]	23 nM	50 nM	36 nM	275 nM	1410 nM	–	–	–	–	–	–
N-(4-(4-(aminomethyl)-1H-pyrazol-1-yl)-3-chlorophenyl)-1-(quinolin-5-yl)-5-(trifluoromethyl)-1H-pyrazole-4-carboxamide [Cpd 174]	59 nM	–	–	–	–	251 nM	112 nM	804 nM	1700 nM	–	–
Cn1ccc(-c2ncc(NC(=O)c3cnn(-c4cccc5c(=O)[nH]ccc45)c3C(F)(F)F)cc2Cl)n1 [Cpd 157, N-(5-chloro-6-(1-methyl-1H-pyrazol-3-yl)pyridin-3-yl)-1-(1-oxo-1,2-dihydroisoquinolin-5-yl)-5-(trifluoromethyl)-1H-pyrazole-4-carboxamide]	23 nM	1780 nM	912 nM	1270 nM	7080 nM	–	–	–	–	–	–
Cc1nc(-n2nccn2)c(Cl)cc1NC(=O)c1cnn(-c2cccn3nccc23)c1C(F)(F)F	26 nM	115 nM	91 nM	641 nM	3020 nM	–	–	–	–	–	–
O=C(Nc1cnc(-n2cc(CO)cn2)c(Cl)c1)c1cnn(-c2cccc3ncccc23)c1C(F)(F)F [Cpd 135, N-(5-chloro-6-(4-(hydroxymethyl)-1H-pyrazol-1-yl)pyridin-3-yl)-1-(quinolin-5-yl)-5-(trifluoromethyl)-1H-pyrazole-4-carboxamide]	21 nM	98 nM	83 nM	1310 nM	3090 nM	–	–	–	–	–	–
Cc1cc(-n2nccn2)c(C#N)cc1NC(=O)c1cnn(-c2cccc3c(=O)[nH]ccc23)c1C(F)(F)F [Cpd 446, N-(5-cyano-2-methyl-4-(2H-1,2,3-triazol-2-yl)phenyl)-1-(1-oxo-1,2-dihydroisoquinolin-5-yl)-5-(trifluoromethyl)-1H-pyrazole-4-carboxamide]	32 nM	22 nM	13 nM	1060 nM	> 20000 nM	–	–	–	–	–	–
O=C(Nc1cnc(-n2nccn2)c(Cl)c1)c1cnn(-c2cc(=O)[nH]c3ccccc23)c1C(F)(F)F [Cpd 418, N-(5-chloro-6-(2H-1,2,3-triazol-2-yl)pyridin-3-yl)-1-(2-oxo-1,2-dihydroquinolin-4-yl)-5-(trifluoromethyl)-1H-pyrazole-4-carboxamide]	550 nM	95 nM	71 nM	464 nM	3630 nM	–	–	–	–	–	–
N#Cc1cc(NC(=O)c2cnn(-c3ccc(N)c4ccccc34)c2C(F)(F)F)cnc1-n1nccn1 [Cpd 132, 1-(4-aminonaphthalen-1-yl)-N-(5-cyano-6-(2H-1,2,3-triazol-2-yl)pyridin-3-yl)-5-(trifluoromethyl)-1H-pyrazole-4-carboxamide]	19 nM	141 nM	95 nM	571 nM	7760 nM	–	–	–	–	–	–
O=C(Nc1cc(Cl)c(-n2nccn2)cc1F)c1cnn(-c2cncc3c(F)cccc23)c1C(F)(F)F [Cpd 302, N-(5-chloro-2-fluoro-4-(2H-1,2,3-triazol-2-yl)phenyl)-1-(8-fluoroisoquinolin-4-yl)-5-(trifluoromethyl)-1H-pyrazole-4-carboxamide]	54 nM	102 nM	59 nM	692 nM	955 nM	–	–	–	–	–	–
O=C(Nc1cncc(C(F)(F)F)c1)c1cnn(-c2cccc3c(=O)[nH]ccc23)c1C(F)(F)F [Cpd 167, 1-(1-oxo-1,2-dihydroisoquinolin-5-yl)-5-(trifluoromethyl)-N-(5-(trifluoromethyl)pyridin-3-yl)-1H-pyrazole-4-carboxamide]	110 nM	191 nM	174 nM	1020 nM	4570 nM	–	–	–	–	–	–
O=C(Nc1cnc(-n2nccn2)c(Cl)c1)c1cnn(-c2ccnc3ccccc23)c1C(F)(F)F [Cpd 450, N-(5-chloro-6-(2H-1,2,3-triazol-2-yl)pyridin-3-yl)-1-(quinolin-4-yl)-5-(trifluoromethyl)-1H-pyrazole-4-carboxamide]	10 nM	107 nM	71 nM	295 nM	2820 nM	–	–	–	–	–	–
Nc1ncc(-n2ncc(C(=O)Nc3cnc(-n4nccn4)c(Cl)c3)c2C(F)(F)F)c2cccc(F)c12 [Cpd 110, 1-(1-amino-8-fluoroisoquinolin-4-yl)-N-(5-chloro-6-(2H-1,2,3-triazol-2-yl)pyridin-3-yl)-5-(trifluoromethyl)-1H-pyrazole-4-carboxamide]	19 nM	25 nM	24 nM	220 nM	1440 nM	–	–	–	–	–	–
Cn1c(=O)cc(-n2ncc(C(=O)Nc3cnc(-n4nccn4)c(Cl)c3)c2C(F)(F)F)c2ccccc21 [Cpd 419, N-(5-chloro-6-(2H-1,2,3-triazol-2-yl)pyridin-3-yl)-1-(1-methyl-2-oxo-1,2-dihydroquinolin-4-yl)-5-(trifluoromethyl)-1H-pyrazole-4-carboxamide]	15 nM	1660 nM	–	1120 nM	5750 nM	–	–	–	–	–	–
N#Cc1cc(NC(=O)c2cnn(-c3cccc4ncccc34)c2C(F)(F)F)ccc1-n1nccn1 [Cpd 133, N-(3-cyano-4-(2H-1,2,3-triazol-2-yl)phenyl)-1-(quinolin-5-yl)-5-(trifluoromethyl)-1H-pyrazole-4-carboxamide]	19 nM	–	–	273 nM	3310 nM	–	–	–	–	126 nM	54 nM
O=C(Nc1cnc(-n2ccnc2)c(Cl)c1)c1cnn(-c2cncc3ccccc23)c1C(F)(F)F [Cpd 70, N-(5-chloro-6-(1H-imidazol-1-yl)pyridin-3-yl)-1-(isoquinolin-4-yl)-5-(trifluoromethyl)-1H-pyrazole-4-carboxamide]	479 nM	–	–	~1350 nM	~13800 nM	–	–	–	–	1100 nM	891 nM
N#Cc1cc(NC(=O)c2cnn(-c3cccc4ncccc34)c2C(F)(F)F)cnc1-n1ncc(CO)n1 [Cpd 177, N-(5-cyano-6-(4-(hydroxymethyl)-2H-1,2,3-triazol-2-yl)pyridin-3-yl)-1-(quinolin-5-yl)-5-(trifluoromethyl)-1H-pyrazole-4-carboxamide]	44 nM	–	–	1710 nM	6610 nM	–	–	–	–	933 nM	363 nM
O=C(Nc1cnc(-n2nccn2)c(Cl)c1)c1cnn(-c2cc[n+]([O-])c3ccccc23)c1C(F)(F)F [Cpd 405, 4-(4-((5-chloro-6-(2H-1,2,3-triazol-2-yl)pyridin-3-yl)carbamoyl)-5-(trifluoromethyl)-1H-pyrazol-1-yl)quinoline 1-oxide]	44 nM	–	–	513 nM	4360 nM	–	–	–	–	457 nM	178 nM
N#Cc1cc(NC(=O)c2cnn(-c3nccc4ccoc34)c2C(F)(F)F)cnc1-n1nccn1 [Cpd 99, N-(5-cyano-6-(2H-1,2,3-triazol-2-yl)pyridin-3-yl)-1-(furo[2,3-c]pyridin-7-yl)-5-(trifluoromethyl)-1H-pyrazole-4-carboxamide]	11 nM	–	–	650 nM	~3240 nM	–	–	–	–	68 nM	47 nM
N#Cc1nccc2c(-n3ncc(C(=O)Nc4cnc(-n5nccn5)c(Cl)c4)c3C(F)(F)F)cccc12 [Cpd 411, N-(5-chloro-6-(2H-1,2,3-triazol-2-yl)pyridin-3-yl)-1-(1-cyanoisoquinolin-5-yl)-5-(trifluoromethyl)-1H-pyrazole-4-carboxamide]	33 nM	–	–	486 nM	871 nM	–	–	–	–	2510 nM	2340 nM

Source: patent US10954214B2 (Janssen Pharmaceutica NV, priority 2016, dated 2021)
